# Measurements: PubChem BioAssay (NCI)
#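 Five concentrations, 48 hours, 96-well plates. TGI is the concentration that stops growth completely.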
# Legend:
# Test in all cases: NCI tumour cell line growth inhibition, 48 h
# A498 renal = tested on: A498 renal
# A549 NSCLC = tested on: A549 NSCLC
# CAKI-1 renal = tested on: CAKI-1 renal
# CCRF-CEM leukemia = tested on: CCRF-CEM leukemia
# COLO 205 colon = tested on: COLO 205 colon
# DLD-1 colon = tested on: DLD-1 colon
# DMS 114 small cell lung = tested on: DMS 114 small cell lung
# DMS 273 small cell lung = tested on: DMS 273 small cell lung
# EKVX NSCLC = tested on: EKVX NSCLC
# HCC-2998 colon = tested on: HCC-2998 colon
# HCT-116 colon = tested on: HCT-116 colon
# HCT-15 colon = tested on: HCT-15 colon
# HL-60(TB) leukemia = tested on: HL-60(TB) leukemia
# HOP-18 NSCLC = tested on: HOP-18 NSCLC
# HOP-62 NSCLC = tested on: HOP-62 NSCLC
# HOP-92 NSCLC = tested on: HOP-92 NSCLC
# HT29 colon = tested on: HT29 colon
# IGROV1 ovarian = tested on: IGROV1 ovarian
# K-562 leukemia = tested on: K-562 leukemia
# KM12 colon = tested on: KM12 colon
# KM20L2 colon = tested on: KM20L2 colon
# LOX IMVI melanoma = tested on: LOX IMVI melanoma
# M19-MEL melanoma = tested on: M19-MEL melanoma
# MALME-3M melanoma = tested on: MALME-3M melanoma
# MCF7 breast = tested on: MCF7 breast
# MOLT-4 leukemia = tested on: MOLT-4 leukemia
# NCI-H226 lung = tested on: NCI-H226 lung
# NCI-H23 lung = tested on: NCI-H23 lung
# NCI-H460 lung = tested on: NCI-H460 lung
# NCI-H522 lung = tested on: NCI-H522 lung
# NCI/ADR-RES ovarian = tested on: NCI/ADR-RES ovarian
# OVCAR-3 ovarian = tested on: OVCAR-3 ovarian
# OVCAR-4 ovarian = tested on: OVCAR-4 ovarian
# OVCAR-5 ovarian = tested on: OVCAR-5 ovarian
# OVCAR-8 ovarian = tested on: OVCAR-8 ovarian
# P388 leukemia = tested on: P388 leukemia
# P388/ADR leukemia = tested on: P388/ADR leukemia
# RPMI-8226 leukemia = tested on: RPMI-8226 leukemia
# RXF 393 renal = tested on: RXF 393 renal
# SF-268 CNS = tested on: SF-268 CNS
# SF-295 CNS = tested on: SF-295 CNS
# SF-539 CNS = tested on: SF-539 CNS
# SK-MEL-2 melanoma = tested on: SK-MEL-2 melanoma
# SK-MEL-28 melanoma = tested on: SK-MEL-28 melanoma
# SK-MEL-5 melanoma = tested on: SK-MEL-5 melanoma
# SK-OV-3 ovarian = tested on: SK-OV-3 ovarian
# SN12C renal = tested on: SN12C renal
# SN12K1 renal = tested on: SN12K1 renal
# SNB-19 CNS = tested on: SNB-19 CNS
# SNB-75 CNS = tested on: SNB-75 CNS
# SNB-78 CNS = tested on: SNB-78 CNS
# SW-620 colon = tested on: SW-620 colon
# U251 CNS = tested on: U251 CNS
# UACC-257 melanoma = tested on: UACC-257 melanoma
# UACC-62 melanoma = tested on: UACC-62 melanoma
# UO-31 renal = tested on: UO-31 renal
# XF 498 CNS = tested on: XF 498 CNS
# 786-0 renal = tested on: 786-0 renal
# ACHN renal = tested on: ACHN renal
# LXFL 529 NSCLC = tested on: LXFL 529 NSCLC
# M14 melanoma = tested on: M14 melanoma
# RXF-631 renal = tested on: RXF-631 renal
# SR leukemia = tested on: SR leukemia
# TK-10 renal = tested on: TK-10 renal
structure (smiles),measurement,setting,value
CCCN1C(=O)/C(=C(/O)C(=O)OCC)C(c2ccc(OC)c(OC)c2)C1=O (stereo not drawn),TGI,A498 renal,> 100 µM
same,TGI,A549 NSCLC,> 100 µM
same,TGI,CAKI-1 renal,> 100 µM
same,TGI,CCRF-CEM leukemia,> 100 µM
same,TGI,COLO 205 colon,> 100 µM
same,TGI,DLD-1 colon,> 100 µM
same,TGI,DMS 114 small cell lung,> 100 µM
same,TGI,DMS 273 small cell lung,> 100 µM
same,TGI,EKVX NSCLC,> 100 µM
same,TGI,HCC-2998 colon,> 100 µM
same,TGI,HCT-116 colon,> 100 µM
same,TGI,HCT-15 colon,> 100 µM
same,TGI,HL-60(TB) leukemia,> 100 µM
same,TGI,HOP-18 NSCLC,> 100 µM
same,TGI,HOP-62 NSCLC,> 100 µM
same,TGI,HOP-92 NSCLC,> 100 µM
same,TGI,HT29 colon,> 100 µM
same,TGI,IGROV1 ovarian,> 100 µM
same,TGI,K-562 leukemia,> 100 µM
same,TGI,KM12 colon,> 100 µM
same,TGI,KM20L2 colon,> 100 µM
same,TGI,LOX IMVI melanoma,> 100 µM
same,TGI,M19-MEL melanoma,> 100 µM
same,TGI,MALME-3M melanoma,> 100 µM
same,TGI,MCF7 breast,> 100 µM
same,TGI,MOLT-4 leukemia,> 100 µM
same,TGI,NCI-H226 lung,> 100 µM
same,TGI,NCI-H23 lung,> 100 µM
same,TGI,NCI-H460 lung,> 31.6 µM
same,TGI,NCI-H522 lung,> 100 µM
same,TGI,NCI/ADR-RES ovarian,> 100 µM
same,TGI,OVCAR-3 ovarian,> 66.1 µM
same,TGI,OVCAR-4 ovarian,> 100 µM
same,TGI,OVCAR-5 ovarian,> 100 µM
same,TGI,OVCAR-8 ovarian,> 100 µM
same,TGI,P388 leukemia,> 100 µM
same,TGI,P388/ADR leukemia,> 100 µM
same,TGI,RPMI-8226 leukemia,> 100 µM
same,TGI,RXF 393 renal,> 100 µM
same,TGI,SF-268 CNS,> 100 µM
same,TGI,SF-295 CNS,> 100 µM
same,TGI,SF-539 CNS,> 100 µM
same,TGI,SK-MEL-2 melanoma,> 100 µM
same,TGI,SK-MEL-28 melanoma,> 100 µM
same,TGI,SK-MEL-5 melanoma,> 100 µM
same,TGI,SK-OV-3 ovarian,> 100 µM
same,TGI,SN12C renal,> 100 µM
same,TGI,SN12K1 renal,> 100 µM
same,TGI,SNB-19 CNS,> 100 µM
same,TGI,SNB-75 CNS,> 100 µM
same,TGI,SNB-78 CNS,> 100 µM
same,TGI,SW-620 colon,> 100 µM
same,TGI,U251 CNS,> 100 µM
same,TGI,UACC-257 melanoma,> 100 µM
same,TGI,UACC-62 melanoma,> 100 µM
same,TGI,UO-31 renal,> 100 µM
same,TGI,XF 498 CNS,> 100 µM
NC(=S)N/N=C(\C(=O)Nc1ccc(Cl)c(Cl)c1)C1=NN(c2ccccc2)C(c2cccc([N+](=O)[O-])c2)CC1=O (stereo not drawn),TGI,786-0 renal,36.8 µM
same,TGI,A498 renal,> 100 µM
same,TGI,A549 NSCLC,> 100 µM
same,TGI,ACHN renal,> 100 µM
same,TGI,CAKI-1 renal,> 100 µM
same,TGI,CCRF-CEM leukemia,62 µM
same,TGI,COLO 205 colon,36.3 µM
same,TGI,DLD-1 colon,47.5 µM
same,TGI,DMS 114 small cell lung,71.2 µM
same,TGI,DMS 273 small cell lung,45.2 µM
same,TGI,EKVX NSCLC,> 100 µM
same,TGI,HCC-2998 colon,> 100 µM
same,TGI,HCT-116 colon,11.6 µM
same,TGI,HCT-15 colon,> 100 µM
same,TGI,HL-60(TB) leukemia,> 100 µM
same,TGI,HOP-18 NSCLC,> 100 µM
same,TGI,HOP-62 NSCLC,84.2 µM
same,TGI,HT29 colon,34.8 µM
same,TGI,IGROV1 ovarian,72.6 µM
same,TGI,K-562 leukemia,65.5 µM
same,TGI,KM12 colon,> 100 µM
same,TGI,KM20L2 colon,46.8 µM
same,TGI,LOX IMVI melanoma,30.8 µM
same,TGI,LXFL 529 NSCLC,48.1 µM
same,TGI,M14 melanoma,> 100 µM
same,TGI,M19-MEL melanoma,50.5 µM
same,TGI,MALME-3M melanoma,> 100 µM
same,TGI,MOLT-4 leukemia,70.9 µM
same,TGI,NCI-H226 lung,93.6 µM
same,TGI,NCI-H23 lung,46.9 µM
same,TGI,NCI-H460 lung,> 100 µM
same,TGI,OVCAR-3 ovarian,51.4 µM
same,TGI,OVCAR-4 ovarian,63 µM
same,TGI,OVCAR-5 ovarian,> 100 µM
same,TGI,OVCAR-8 ovarian,> 100 µM
same,TGI,RPMI-8226 leukemia,14.4 µM
same,TGI,RXF-631 renal,> 100 µM
same,TGI,SF-268 CNS,> 100 µM
same,TGI,SF-295 CNS,57.2 µM
same,TGI,SF-539 CNS,50.8 µM
same,TGI,SK-MEL-2 melanoma,> 100 µM
same,TGI,SK-MEL-28 melanoma,> 100 µM
same,TGI,SK-MEL-5 melanoma,> 100 µM
same,TGI,SK-OV-3 ovarian,> 100 µM
same,TGI,SN12C renal,38.5 µM
same,TGI,SNB-19 CNS,> 100 µM
same,TGI,SNB-75 CNS,99.7 µM
same,TGI,SNB-78 CNS,> 100 µM
same,TGI,SR leukemia,> 100 µM
same,TGI,SW-620 colon,35.5 µM
same,TGI,TK-10 renal,> 100 µM
same,TGI,U251 CNS,17 µM
same,TGI,UACC-257 melanoma,83.1 µM
same,TGI,UACC-62 melanoma,> 100 µM
same,TGI,UO-31 renal,> 100 µM
same,TGI,XF 498 CNS,> 100 µM
